In US20070258899A1, “Diagnostic and therapeutic agents” (KARYON-CTT LTD, priority 2006, published 2007):
Starred links: 1 amine or outer side, 2 acyl side, 3 side chain; linkers in the order of their positions; H or OH if unused. Positions of bridges follow the written chain, without caps; N, C: chain ends. Non-standard residues stand in square brackets, D forms with d. Residues, ends and D or L forms follow the SMILES beside them. No end group written: not given here. Cysteamide = C(CS[*:3])N[*:1]; AEEEA = NCCOCCOCCOCC(=O)O

Experiments:
LoVo cell line = experiment: Cytotoxicity assay (MTT); assay type: cell-based, human
Description: […] The measurement of cell viability was done with MTT (Thiazolyl blue, Sigma M-5655) tetrazolium salt. MTT is cleaved to water-insoluble formazan dye by the “succinate-tetrazolium reductase” system, which is active only in viable cells. After formazan was solubilized by 10% SDS-0.01 M HCl, it was quantified in an ELISA spectrometer (ThermoLabsystems Multiscan EX) at 560 nm. CuSAO2 [trans-bis(salicylaldoximato)copper(II)] 7.5 μg/ml was used as a positive control for 100% toxicity.
Procedure. Cells were trypsinized from the cell culture dish (ø9 cm) with 1 ml of TE for 1-5 minutes and moved to a 50 ml Falcon tube. After this the volume was increased to 20 ml of cell line specific medium and cells were transferred to a Bürker chamber and diluted in medium to a concentration of 2500-3500 cells/100 μl depending on cell line. […]
Next day 40 μl of medium was removed from all wells except from the ones with only medium and one column with cells. […] The next day the cell morphology was analyzed with a microscope. […]
The next day, the MTT assay described above was performed. The viable count (v.c.) was calculated as: [formula]

Athymic nude mice = experiment: In vivo toxicity study; details: 1 mg i.v. into tail vein; observed 30 min after injection and 15 min on the following day
Description: 1 mg of targeting unit HP203 (described in Example 2) was injected i.v. into the tail vein of three Athymic nude mice in a volume of 100 μl of sterile physiological saline. The behavior of mice was observed during 30 min right after injection and during 15 min on the following day (comparison to non-injected mouse).

[1] = tested on: HSC-3 oral cancer cell line; experiment: Cell binding assay to immobilized targeting agents; assay type: cell-based, human; details: wells coated at 30 μg/ml, 75000 cells, 30 minutes at 37° C., MTT detection
Description: The human oral squamous cell carcinoma line HSC-3, called herein “HSC-3” (JCRB Cell Bank 0623, National Institute of Health Sciences, Japan) was cultivated in 1:1 DMEM and Ham's F 12 medium containing 10% FBS, 1% penicillin/streptomycin, L-glutamate and sodium pyruvate and 0.4 ng/ml hydrocortisone.
(§1) Preparation of plates for assays. Wells of Reacti-Bind Maleimide activated clear strip plate (Pierce, Prod#. 15150) were coated with targeting agents of this invention at a concentration of 30 μg/ml. The incubation was carried out of overnight at 20° C. The binding buffer containing unbound peptide was removed from the wells.
(§2) The wells were blocked with blocking buffer (0.5% BSA, 0.05% Tween20 in phosphate buffer saline (PBS). PBS was prepared as follows: 40 g of NaCl, 1 g of KCl, 7 g of Na2HPO4×2H2O and 1 g of KH2PO4 were dissolved in 1000 ml of deionized H2O. Blank wells as controls were prepared by treating empty wells with blocking buffer. The plates were incubated 1 hour 30 min at 20° C. After incubation the plate was washed three times with PBS, pH 7.4.
(§3) Cell binding assay. 75000 cells in volume of 150 μl of medium were added into coated wells and were incubated for 30 minutes at 37° C. After cell binding, the wells were washed with PBS for 30 minutes. […] On following day the absorbance of plate was measured at 560 nm with ELISA-reader (ThermoLabsystems, Multiskan EX). […]

HCT-15 cell line = experiment: Cell binding assay to immobilized targeting agents; assay type: cell-based, human; details: wells coated at 30 μg/ml, 75000 cells, 30 minutes at 37° C., MTT detection
Description: The human colorectal cancer HCT-15 cell line (ATCC: CCL-225), called herein also “HCT-15”, was cultured in RPMI 1640 medium with 2 mM L-glutamine adjusted to contain 1.5 g/L sodium bicarbonate, 4.5 g/L glucose, 10 mM HEPES, and 1.0 mM sodium pyruvate, 1% penicillin/streptomycin, 10% fetal bovine serum.
as §1, §2, §3

[2] = tested on: mouse fibroblast cell line NIH3T3; experiment: Cell binding assay to immobilized targeting agents (control cell line); assay type: cell-based; details: wells coated at 30 μg/ml, 75000 cells, 30 minutes at 37° C., MTT detection
Description: The mouse fibroblast line NIH3T3, called herein also “NIH3T3”, has been described previously by Koga et al. in Gann, 1979, 70: 585-591. The cell line was cultured in DMEM medium adjusted to contain 2 mM L-glutamine, 1% penicillin/streptomycin, and 10% fetal bovine serum.
as §1, §2, §3

[3] = tested on: C8161T melanoma cell line; experiment: Cell binding assay to immobilized targeting agents; assay type: cell-based, human; details: wells coated at 30 μg/ml, 75000 cells, 30 minutes at 37° C., MTT detection
Description: The human melanoma cell line C8161 has been described previously by Welch et al. in Int. J. Cancer, 1991, 47: 227-237. A more metastatic cell line C8161T, called herein also “C8161T”, was developed by culturing cells from a subcutaneous melanoma tumor developed after inoculation of C8161 melanoma cells on the flank of a nude mouse. The cell line was cultured in DMEM medium adjusted to contain 2 mM L-glutamine, 1% penicillin/streptomycin, and 10% fetal bovine serum.
as §1, §2
Cell binding assay. […] On following day the absorbance of plate was measured at 560 nm with ELISA-reader (ThermoLabsystems, Multiskan EX). […]

HCT-15-LM1 cell line = experiment: Cell binding assay to immobilized targeting agents; assay type: cell-based, human; details: wells coated at 30 μg/ml, 75000 cells, 30 minutes at 37° C., MTT detection
From the text: The colorectal cancer cell line HCT-15-LM1 was developed as follows. The cell culture was started with cancer cells from lung metastases which had developed after injection of human colorectal cancer HCT-15 cells into the bloodstream of a mouse. The inoculation procedure was then repeated with HCT-15-LM1 cells leading to the establishment of another metastatic cell line, HCT-15-LM2.
as §1, §2
Cell binding assay. 75000 cells in volume of 150 μl of medium were added into coated wells and were incubated for 30 minutes at 37° C. […] On following day the absorbance of plate was measured at 560 nm with ELISA-reader (ThermoLabsystems, Multiskan EX). […]

[4] = tested on: murine endothelial cell line SVEC4-10; experiment: Cell binding assay to immobilized targeting agents (control cell line); assay type: cell-based, mouse; details: control cell line SVEC4-10; wells coated at 30 μg/ml; 75000 cells, 30 minutes at 37° C.; MTT detection
Description: The mouse vascular endothelial cell line SVEC4-10, called herein also “SVEC4-10”, has been described previously by O'Connell et al. in J. Immunol., 1990, 144: 521-525. The cell line was cultured in DMEM medium adjusted to contain 2 mM L-glutamine, 1% penicillin/streptomycin, and 10% fetal bovine serum.
as §1, §2, §3

[5] = tested on: lung metastases of colorectal cancer patients; experiment: Bio-panning of phage display library on clinical tumor samples; assay type: binding, human; details: phage-displayed CX7C library; ex vivo panning round three
From the text: Phage display library. Standard procedures according to Smith and Scott (ibid.) were used. Phage display library used for screening of clinical samples was cloned in fUSE5 vector and was of the cyclic structure CX7C. The E. coli strain K91kan was used as host for phage amplification.
Phage display on clinical tumor samples. Tissue samples were surgically removed from lung metastases of colorectal cancer patients. Part of the sample was taken for pathological examination, rest was placed in ice cold DMEM-PI (Dulbecco's medium containing protease inhibitors PI; 10 mM PMSF (Phenyl-methyl-sulphonyl-fluoride), Aprotinin (10 mg/ml) Leupeptin (10 mg/ml)). Tissue samples were minced with a razor blade in a small cell culture plate in 1 ml of DMEM containing protease inhibitors. The samples were transferred to an eppendorf tube and washed with 1 ml DMEM-PI.
Samples were centrifuged at 5000 rpm for 4 min and were then incubated with […] transducing units of phage in 1 ml DMEM-PI at 25° C. for 15 min.
1 ml K91kan bacteria, OD600: 1-1.5, in LB containing 100 μg/ml kanamycin (kan) were infected with the washed pellet containing selectively attached phage particles at 25° C. for 25 min. […]
Then the bacteria were pelleted at 5000 rpm for 15 min. […] For the next rounds of bio-panning of clinical samples the titre of the TBS phage stock was determined as described above. […]

Compound	binding of cells to immobilized targeting agent (absorbance at 560 nm) [1]	binding of cells to immobilized targeting agent (absorbance at 560 nm) (HCT-15 cell line)	binding of cells to immobilized targeting agent (absorbance at 560 nm) [2]	binding of cells to immobilized targeting agent (absorbance at 560 nm) [3]	binding of cells to immobilized targeting agent (absorbance at 560 nm) (HCT-15-LM1 cell line)	binding of cells to immobilized targeting agent (absorbance at 560 nm) [4]	Peptides selectively binding to lung tumors (enriched in bio-panning) [5]	other results
[Cu+2].[O-]c1ccccc1C=NO.[O-]c1ccccc1C=NO [CuSAO2, trans-bis(salicylaldoximato)copper(II), reference compound]	–	–	–	–	–	–	–	cell killing (LoVo cell line; 7.5 μg/ml, positive control): 100%
CC(C)C[C@@H]1NC(=O)[C@H](Cc2ccccc2)NC(=O)CNC(=O)[C@H](Cc2ccc(O)cc2)NC(=O)[C@@H](NC(=O)[C@H](C)NC(=O)CNC(=O)[C@H](CC(=O)O)NC(=O)[C@H](C)N)CSSC[C@@H](C(=O)NCCOCCOCCOCC(=O)NCCOCCOCCOCC(=O)NCCOCCOCCOCC(N)=O)NC(=O)[C@H](CCC(N)=O)NC(=O)CNC(=O)[C@H](Cc2c[nH]c3ccccc23)NC1=O [HP203] (H-ADGACYGFLWGQC[AEEEA][AEEEA][AEEEA]-NH2; disulfide 5-13; N-terminus assumed)	–	–	–	–	–	–	–	toxic effect on mice (behavior observed) (Athymic nude mice): did not have any toxic effect; toxicity for the tested cell line (viable count, MTT) (LoVo cell line; 5 μg/ml and 138 μg/ml, 24 h, 48 h, 72 h): non-toxic
Ac-aYGFVWGEE-(Teg-Glu)2-EAT [MJ012]	bind selectively	bind selectively	significantly less binding	bind selectively	bind selectively	significantly less binding	–	–
CYGFLWGQC	–	–	–	–	–	–	selectively binding	–
CYGFVWGEC (disulfide 1-9 (inferred))	–	–	–	–	–	–	selectively binding	–
a*YGFVWGEE*-(Teg-Glu)2-EAT ([dA]YGFVWGEE[AEEEA]E[AEEEA]E-Cysteamide; lactam N-9; not fully specified; printed as a*YGFVWGEE*-(Teg-Glu)2-EAT) [MJ013]	bind selectively	bind selectively	significantly less binding	bind selectively	bind selectively	significantly less binding	–	–
